Assay results from patent US6013628A, “Method for treating conditions of the eye using polypeptides” (Regents of the University of Minnesota, priority 1995, dated 2000).
No end group written: not given here.

Key:
[1] = system: rabbit dermal fibroblasts; test: Fibroblast-mediated collagen gel contraction (shrinkage) assay; type: cell-based; settings: for Contraction: 200 ug laminin peptide, no peptide 67%; for Contraction / % Contraction: cells preincubated 1 hr, gel surface area by planimetry at day 7; for Effect on fibroblast-mediated collagen gel contraction: gels cast with and without fibronectin; for % Contraction: 200 ug type IV collagen peptide, no peptide 36%
Excerpt: As indicated above, proliferative vitreoretinopathy is the result of the proliferation and migration of fibroblasts, retinal pigment epithelial cells, and glial cells, and their organization into vitreous strands and epiretinal membranes. The vitreous strands and epiretinal membranes can contract, resulting in traction retinal detachment. The ability of rabbit dermal fibroblasts to cause contraction was examined in the collagen gel shrinkage model, which serves as an in vitro model of proliferative vitreoretinopathy (see Verdoon et al., Arch. Ophthalmol., 104, 1216-1219 (1986)). The ability of synthetic polypeptides derived from ECM molecules to inhibit contraction in the collagen gel shrinkage model using rabbit fibroblasts was also examined.
Fifty thousand rabbit dermal fibroblasts were suspended in 250 μl of fibroblast assay medium and mixed with 250 μl of Vitrogen and dispensed into the wells of a 48-well plate. The cells were preincubated with the desired polypeptide concentration (25, 50, 100, or 200 ug/ml) for one hour at 37° C. before mixing with the Vitrogen. Gelling occurred within 20 minutes after transfer of the mix of cell suspension and Vitrogen into an incubator at 37° C. with 5% CO2. The gels were overlaid with 250 μl of growth medium. All conditions were tested in duplicate wells. After 24 hours, the gels were detached from the sides of the wells by sweeping with a 27-gauge needle inserted at the interface between the plastic well and the gel (FIGS. 6-8).
Contraction of collagen gels was quantitated by use of planimetry. The gels were observed daily over the seven day period following detachment for evidence of contraction. The plates were photographed at the end of the seven days to record the amount of contraction. The contraction was measured by recording the area of each gel in each well off the photograph using a computer scanner. The area of the gels with polypeptide was compared to the area of the gels without the polypeptide. Planimetry is a two-dimensional measurement. […] The planimetry measurements accordingly underestimate the degree of contraction that actually occurred.
The collagen gels were cast with or without the incorporation of 25 ug/ml of fibronectin. […] These controls using deactivated cells indicate that cell growth and proliferation are required to effect gel shrinkage.

[2] = system: proliferative vitreoretinopathy in rabbits; test: Rabbit model of experimental proliferative vitreoretinopathy (intravitreal fibroblast injection); type: in vivo
Method: The rabbit model for proliferative vitreoretinopathy is described in Thresher et al., Graefe's Arch. Clin. Exp. Ophthalmol., 221, 192-198 (1984). Adult Dutch Belted rabbits of both sexes were used in the study. All animals were treated according to ARVO Animal Use Guidelines. All eyes were examined prior to initiation of a study and only clinically normal animals were used.
The rabbits were anesthetized using an intramuscular injection of a mix of ketamine (30 mg/kg) and xylazine (5 mg/kg). Pupils were dilated with Mydriacyl (Tropicamide) 1% and Neosynephrine 2.5% topical drops. Topical conjunctival anesthesia was provided with Proparacaine […] drops. All procedures were performed in an approved animal surgical facility. […] This site was used for subsequent intraocular injections, preventing iatrogenic retinal tears at the injection site. An intravitreal injection of 0.4 cc millipore-filtered 100% perfluoropropane gas was administered to produce a gas compression vitrectomy. Once the expansile gas bubble had absorbed, 5-10×10^4 dermal rabbit fibroblasts with or without 200 μg of polypeptide (injection volume-0.1 cc) were injected through a 27 gauge needle into the vitreous cavity. Under indirect ophthalmoscopic visualization, the tip of the needle was placed over the optic nerve head and the cells were injected in this location.
The animals were then observed for the development of proliferative vitreoretinopathy. The final stage of retinal detachment was scored from 0 to 7 using the standard grading scale shown below (see Hida et al., Graefe's Arch. Clin. Exp. Ophthalmol., 225, 1763-1769 (1991)).
Retinal photographs were taken with a wide field fundus camera (Canon) to document the final stage of retinal detachment. Animals were sacrificed while under deep anesthesia with an intravenous injection of 1 cc of euthanasia solution. The eyes were then immediately enucleated, fixed in 10% formalin, paraffin embedded, sectioned at 7 microns, and stained with hematoxylin and eosin for histology.
Three weeks following peripheral retinal cryopexy and gas compression vitrectomy, rabbit fibroblasts incubated for 1 hr with 200 ug of laminin polypeptide R37, type IV collagen polypeptide Hep-II, or BSS (balanced saline solution; control) were injected intravitreally. One eye of each rabbit received polypeptide incubated fibroblasts and the other eye received the control cells. Eyes were examined every three days, and the degree of retinal detachment was graded on the standard scale described above.

rabbit eye = test: Intravitreal polypeptide toxicity in rabbit eye (ERG, clinical observations, histology); type: in vivo
Method: The toxicity of the polypeptides was determined by three techniques:
ERG. Electroretinograms (ERG) were carried out as a functional indicator of toxicity of a polypeptide treatment. Polypeptides were injected at 200 ug and 400 ug (twice the dose that inhibited proliferative vitreoretinopathy), and ERG measurements were performed three times in each eye at various times post-injection (1 hr to 6 weeks).
Clinical observations. Observation by indirect ophthalmoscopy and slit lamp examination were performed to probe for evidence of toxicity.
Histology. Following ERG and clinical observations, the eyes were immediately enucleated, fixed in 10% formalin, paraffin embedded, sectioned at 7 microns, and stained with hematoxylin and eosin.

[3] = 3H-heparin; cited from earlier work
dermal fibroblasts [4] = settings: Verdoorn et al. 1986; cited from earlier work
dermal fibroblasts [5] = settings: Verdoorn et al. 1986; cited from earlier work; remark: listed apart in the source
dermal fibroblasts [6] = settings: Verdoorn et al. 1986; cited from earlier work; remark: listed apart in the source
[7] = system: proliferative vitreoretinopathy rabbit model; settings: cited from earlier work
fibroblasts = settings: cited from earlier work
[8] = system: human scleral fibroblasts; settings: cited from earlier work
[9] = system: retinal pigmented epithelial cells; settings: cited from earlier work
[10] = system: rabbit conjunctival fibroblasts; test: Conjunctival fibroblast proliferation, tritiated thymidine assay; type: cell-based; settings: day 4; mitomycin-C at 100 μg/ml (positive control); no drug control 8537 cpm
Excerpt: The failure of gluacoma treatment by filtration surgery is most often caused by scarring. Scarring requires fibroblast proliferation and fibrosis of the subconjunctive space. Proliferation of rabbit conjunctival fibroblasts was studied using the tritiated thymidine assay, which serves as an in vitro model of fibroblast proliferation in the rabbit eye (see Invest. Ophthalmol. Vis. Sci., 31, 1848-1855 (1990)). The ability of synthetic polypeptides derived from ECM molecules to inhibit conjuntival fibroblast proliferation was examined in this model.
Rabbit conjunctival fibroblasts were plated into 96-well microtiter plates at 1000 cells/well in 200 microliters of standard fibroblast culture media. Standard fibroblast culture media include Eagle's minimal essential medium containing 15% fetal bovine serum, penicillin G 100 IU/ml, streptomycin 100 μg/ml, and amphotericin B 0.25 μg/ml. Hep-II was added to the wells in concentrations ranging from 1 μg/ml to 1000 μg/ml after removing an equal volume of media to maintain 200 microliters/well. The peptide was used in concentrations of 1, 3, 7, 10, 25, 50, 100, 200, 300, 400, 500, 600, 800 and 1000 microgram/ml (experiments 1-14, respectively in FIG. 26). The tissue culture plates were incubated at 37° C. in a humidified atmosphere of 5% carbon dioxide. Two separate sets experiments were conducted. Each set of experiments was done in replicates of four. In the first set of experiments, tritiated thymidine was added 22 hours prior to each harvesting on days 4, 5, and 8. In the second set of experiments, tritiated thymidine was added 22 hours prior to each harvesting on days 4, 5, and 6. Wells with vehicle but no test compound served as negative controls (experiment #15) and cells with mitomycin-C at 100 μg/ml served as positive controls (experiment #16).

KATPMLKMRTSFHGCIK [R37, Lys-Ala-Thr-Pro-Met-Leu-Lys-Met-Arg-Thr-Ser-Phe-His-Gly-Cys-Ile-Lys]
Contraction [1]: 12%
Effect on fibroblast-mediated collagen gel contraction [1]: most potent inhibitory effects on contraction
Retina appearance (stage 0-7 scale), fundus photograph ([2]; 200 ug with 100,000 fibroblasts, three weeks after fibroblast injection): normal (Stage 0)
# Detached Retinas (%) ([2]; Expt II: 200 ug, 50,000 cells, RD staged at day 21, control 40%): 0%
# Detached Retinas ([2]; Expt II: 200 ug, 50,000 cells, RD staged at day 21, total 5 eyes, control 2 of 5): 0
# Detached Retinas (%) ([2]; Expt III: 200 ug, 100,000 cells, RD staged at day 7, control 100%): 14%
# Detached Retinas ([2]; Expt III: 200 ug, 100,000 cells, RD staged at day 7, total 7 eyes, control 7 of 7): 1
# Detached Retinas (%) ([2]; Expt IV: 200 ug, 80,000 cells, RD staged at day 21, control 100%): 25%
# Detached Retinas ([2]; Expt IV: 200 ug, 80,000 cells, RD staged at day 21, total 4 eyes, control 3 of 3): 1
Degree of retinal detachment ([2]; fibroblasts incubated 1 hr with 200 ug polypeptide, intravitreal): inhibited the degree of retinal detachment
Retinal histopathology (rabbit eye; following injection of 400 ug): normal rabbit retinal histopathology
Toxic effects by clinical observations, histopathology or ERG (rabbit eye; intravitreal injection of 200 ug or 400 ug): No toxic effects
Heparin binding [3]: bind

TSLRKALLHAPTGSYSDGQ [R35, TSLRKALLHAPTGSYSDGQ]
Contraction [1]: 63%
Heparin binding [3]: do not bind

COc1cccc2c1C(=O)c1c(O)c3c(c(O)c1C2=O)C[C@@](O)(C(C)=O)C[C@@H]3O[C@H]1C[C@H](N)[C@H](O)[C@H](C)O1 [daunomycin]
Inhibition of cell migration (dermal fibroblasts [4]): most inhibited
Inhibition of gel contraction (dermal fibroblasts [5]): not found to inhibit contraction
Inhibition of cell proliferation (dermal fibroblasts [6]): most effective

CC(=O)O[C@H]1C(=O)[C@@]2(C)[C@H]([C@H](OC(=O)c3ccccc3)[C@]3(O)C[C@H](OC(=O)[C@H](O)[C@@H](NC(=O)c4ccccc4)c4ccccc4)C(C)=C1C3(C)C)[C@]1(OC(C)=O)CO[C@@H]1C[C@@H]2O [taxol]
Inhibition of cell proliferation (dermal fibroblasts [6]): most effective
Traction retinal detachment induced by injected chorioretinal fibroblasts ([7]; 0.5 μg intravitreal injection): reduces traction retinal detachment

GEFYFDLRLKGDK [Hep-III, GEFYFDLRLKGDK]
% Contraction [1]: 33%
Heparin binding [3]: reported to bind heparin

heparin
Fibroblast-mediated contraction of type I collagen gels (fibroblasts): inhibit
Proliferation of human scleral fibroblasts [8]: inhibits the proliferation
Proliferation of retinal pigmented epithelial cells [9]: inhibits the proliferation
Postoperative bleeding ([7]; rabbit, in vivo): increased postoperative bleeding was observed
Development of intraocular fibrin membranes ([7]; standardized PVR rabbit model): prevent the development of intraocular fibrin membranes

YRVRVTPKEKTGPMKE [FN-C/H-III]
Heparin binding [3]: known to bind

SPPRRARVT [FN-C/H-IV, Ser-Pro-Pro-Arg-Arg-Ala-Arg-Val-Thr]
Effect on fibroblast-mediated collagen gel contraction [1]: Inhibition of gel contraction was also observed
Heparin binding [3]: known to bind

KEGYKVRLDLNITLEFRTTSK [R38]
Contraction [1]: 74%
Effect on fibroblast-mediated collagen gel contraction [1]: frequently found to promote contraction
Heparin binding [3]: bind

YEKPGSPPREVVPRPRPGV [FN-C/H-I]
Heparin binding [3]: known to bind

KNNQKSEPLIGRKKT [FN-C/H-IIa]
Heparin binding [3]: known to bind

GVKGDKGNPGWPGAP [IV-H1, GVKGDKGNPGWPGAP]
% Contraction [1]: 72%
Effect on fibroblast-mediated collagen gel contraction [1]: frequently found to promote contraction

COc1cc2c(c(OC)c1OC)-c1ccc(OC)c(=O)cc1[C@@H](NC(C)=O)CC2 [colchicine]
Inhibition of gel contraction (dermal fibroblasts [5]): most effective at inhibiting gel contraction
Inhibition of cell proliferation (dermal fibroblasts [6]): inhibited cell proliferation

KNLEISRSTFDLLRNSYGVRK [R26]
Contraction [1]: 45%
Effect on fibroblast-mediated collagen gel contraction [1]: Inhibition of gel contraction was also observed
Heparin binding [3]: do not bind

CO[C@@]12[C@H](COC(N)=O)C3=C(C(=O)C(C)=C(N)C3=O)N1C[C@@H]1N[C@@H]12 [mitomycin-C, reference compound]
Thymidine uptake [10]: 375 cpm
Gel contraction by pretreated fibroblasts ([1]; fibroblasts pretreated with mitomycin C, data not shown): did not cause gel contraction

CC1(C)O[C@@H]2C[C@H]3[C@@H]4CCC5=CC(=O)C=C[C@]5(C)[C@@]4(F)[C@@H](O)C[C@]3(C)[C@]2(C(=O)CO)O1 [triamcinolone acetonide]
Incidence of retinal detachment ([7]; eyes injected with triamcinolone acetonide, reduced from 93%): 75%

WQPPRARI [FN-C/H-V]
Heparin binding [3]: known to bind

C=C1[C@@H](C)[C@H]2[C@H](Cc3ccccc3)NC(=O)[C@]23OC(=O)/C=C/[C@H](O)CCC[C@@H](C)C/C=C/[C@H]3[C@@H]1O [cytochalasin B]
Inhibition of cell migration (dermal fibroblasts [4]): minimal effect on cell migration
Inhibition of cell proliferation (dermal fibroblasts [6]): inhibited cell proliferation

TAGSCLRKFSTM [Hep-I, TAGSCLRKFSTM]
% Contraction [1]: 33%
Heparin binding [3]: reported to bind heparin
